Measurements taken from paper PMC4579271, “Inflammatory Signaling by NOD-RIPK2 Is Inhibited by Clinically Relevant Type II Kinase Inhibitors” (Chemistry & Biology, 2015).

Legend:
[1] = tested on: RIPK2 ubiquitination in THP-1 cells; assay: TUBE purification of ubiquitin conjugates, L18-MDP-stimulated THP-1 cells; conditions: 200 ng/ml L18-MDP
[2] = tested on: NF-κB activation in HEKBlue cells expressing NOD2; assay: HEKBlue NF-κB-SEAP reporter activation assay, L18-MDP stimulation; conditions: Homo sapiens, HEK-Blue, 8 h, read-out: NFκB activity EC50
[3] = tested on: LPS and Pam3CSK4 responses in RAW264.7 cells; assay: qRT-PCR of Toll-like receptor-dependent inflammatory gene expression in RAW264.7 cells (LPS, Pam3CSK4); type: cell-based, mouse; conditions: 100 nM
Protocol: Figure 6 Inhibition of NOD-Dependent Inflammatory Gene Expression in RAW264.7 Cells (A and B) Cells were pre-treated with 1, 10, or 100 nM inhibitors for 30 min and stimulated with 10 μg/ml MDP (A) or Tri-DAP (B) for 18–24 hr in triplicate. RNA samples were isolated and changes in gene expression were analyzed using gene-specific primers using SYBR qRT-PCR. All values were normalized to the levels of GAPDH. (C and D) Lack of inhibition of Toll-like receptor-dependent inflammatory gene expression in RAW264.7 cells. Experiments were performed as described above, except cells were stimulated with 10 ng/ml E. coli LPS (C) or 500 ng/ml Pam3CSK4 (D). All experiments were performed in triplicate; error bars indicate SD values.
40C centrifuge at 14,000 rpm for 15 min to collect lysates. Protein concentrations were measured using […] protein assay reagent (Pierce). […]
For ADPGlo (Promega) assays, 1 ng Abl or 10 ng of RIPK2 was diluted in reaction buff er (40 mM Tris-HCl pH 7.5, 20 mM MgCl2, 0.5 m M DTT, 0.01% BSA) supplemented with 50 µM ATP and 10-point dose range of inhibitors. […] Luminescent signal was generated by addition of 10 µL of kinase detection reagent for 30 minutes at room temperature and determined using Victor3V platereader (Perkin Elmer). Specific signal was calculated by subtracting values in the wells without protein and inhibitor from the values in the test wells. […]

NOD2-RIPK2 interaction = NOD2-RIPK2 interaction (Homo sapiens, UniProt O43353); assay: HA-immunoprecipitation of RIPK2 with inducible HA-NOD2 in U2OS cells; conditions: 100 nM, 24 hr
Sequence of NOD2-RIPK2 interaction (O43353 whole entry): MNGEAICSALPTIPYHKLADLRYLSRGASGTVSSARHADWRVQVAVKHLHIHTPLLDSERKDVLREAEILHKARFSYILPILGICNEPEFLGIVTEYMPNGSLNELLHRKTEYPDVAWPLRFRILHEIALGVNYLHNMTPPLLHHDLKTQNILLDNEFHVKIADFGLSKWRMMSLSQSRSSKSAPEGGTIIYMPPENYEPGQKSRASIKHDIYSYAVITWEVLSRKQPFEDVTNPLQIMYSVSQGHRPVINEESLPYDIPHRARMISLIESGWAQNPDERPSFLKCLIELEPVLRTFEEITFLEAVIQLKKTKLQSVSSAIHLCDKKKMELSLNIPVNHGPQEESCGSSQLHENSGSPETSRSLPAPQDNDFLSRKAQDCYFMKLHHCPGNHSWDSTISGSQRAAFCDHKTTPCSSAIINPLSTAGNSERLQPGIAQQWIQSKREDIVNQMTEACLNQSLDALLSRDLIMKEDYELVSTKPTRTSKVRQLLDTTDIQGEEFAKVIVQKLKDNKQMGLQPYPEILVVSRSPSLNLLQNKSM
Sequence of NOD2-RIPK2 interaction (Q9HC29 whole entry partner): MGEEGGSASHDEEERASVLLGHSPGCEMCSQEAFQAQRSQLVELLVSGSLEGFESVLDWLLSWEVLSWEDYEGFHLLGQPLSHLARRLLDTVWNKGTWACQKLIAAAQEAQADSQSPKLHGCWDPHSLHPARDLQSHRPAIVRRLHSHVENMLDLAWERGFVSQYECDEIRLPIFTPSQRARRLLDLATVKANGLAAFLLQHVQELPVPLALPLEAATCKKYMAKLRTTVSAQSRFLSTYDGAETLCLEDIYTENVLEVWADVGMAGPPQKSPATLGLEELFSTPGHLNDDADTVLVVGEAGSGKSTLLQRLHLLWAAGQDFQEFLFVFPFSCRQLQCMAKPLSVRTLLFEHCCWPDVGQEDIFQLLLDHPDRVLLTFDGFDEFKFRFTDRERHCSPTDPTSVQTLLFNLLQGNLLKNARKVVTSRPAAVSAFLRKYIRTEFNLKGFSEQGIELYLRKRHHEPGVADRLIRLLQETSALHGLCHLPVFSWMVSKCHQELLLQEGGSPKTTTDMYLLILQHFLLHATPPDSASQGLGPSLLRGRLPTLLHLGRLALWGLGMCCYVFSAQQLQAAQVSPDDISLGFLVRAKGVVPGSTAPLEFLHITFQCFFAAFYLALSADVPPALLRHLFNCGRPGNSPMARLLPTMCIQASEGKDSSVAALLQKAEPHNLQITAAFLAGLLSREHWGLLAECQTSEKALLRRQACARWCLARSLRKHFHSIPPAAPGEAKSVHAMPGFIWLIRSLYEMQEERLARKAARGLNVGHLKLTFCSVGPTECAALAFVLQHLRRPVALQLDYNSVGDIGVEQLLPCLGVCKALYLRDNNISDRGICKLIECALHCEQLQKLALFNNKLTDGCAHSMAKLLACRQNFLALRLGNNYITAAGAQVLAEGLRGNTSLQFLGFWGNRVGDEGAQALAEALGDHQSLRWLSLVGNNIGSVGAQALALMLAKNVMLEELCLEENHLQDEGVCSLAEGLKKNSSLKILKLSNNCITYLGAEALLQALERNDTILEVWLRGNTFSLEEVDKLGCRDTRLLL

[4] = set-up: method as in Cortes et al., 2013; conditions: clinical use; ref Cortes et al., 2013; cited from earlier work
[5] = tested on: RIPK1 ubiquitination and IκBα degradation in THP-1 cells; assay: TUBE purification and immunoblot, TNF-stimulated THP-1 cells; type: cell-based, human; conditions: TNF treatment
Protocol: Figure 5 Inhibition of NOD2-Dependent Ubiquitination and Signaling (A–C) THP-1 cells were pre-treated with kinase inhibitors or DMSO for 30 min and stimulated with 200 ng/ml L18-MDP (A, B) or TNF (C) as indicated. At the indicated time points, cells were lysed and ubiquitinated proteins were isolated using TUBE reagent. The isolated ubiquitinated proteins and input material were analyzed by immunoblotting. See also Figure S6.
The ubiquitin conjugates were purified using GST-Tandem Ubiquitin Binding Entities (TUBE; [Fiil et al., 2013]). In brief, treated THP-1 cells (6–10 × 10^6) were washed with PBS and lysed in 400 μl of ice-cold lysis buffer containing TUBE on ice for 30 min. Cleared lysates were incubated with Glutathione Sepharose 4B resin (Amersham) with agitation at 4°C overnight. The beads were washed four times with PBS-Tween (0.1%) and the bound proteins were released by heating the beads in reducing SDS sample buffer. The samples were resolved on pre-cast gradient gels (NuPage; Life Technologies) in MOPS running buffer and subjected to immunoblotting.

For `Cc1ccc(C(=O)Nc2ccc(CN3CCN(C)CC3)c(C(F)(F)F)c2)cc1C#Cc1cnc2cccnn12` [ponatinib, 3-[2-(imidazo[1,2-b]pyridazin-3-yl)ethynyl]-4-methyl-N-{4-[(4-methylpiperazin-1-yl)methyl]-3-(trifluoromethyl)phenyl}benzamide], the “concentration completely blocking RIPK2 ubiquitination” value [1] was no less than 25 nM, the “concentration reducing extent and length of ubiquitin-modified RIPK2” value [1] was 5 to 10 nM and the EC50 [2] was 0.8 nM. For the same molecule, the “LPS and Pam3CSK4 responses” value [3] was “partially attenuated”, the NOD2-RIPK2 interaction (NOD2-RIPK2 interaction) was “stably maintained” and the adverse events [4] was “serious adverse events including vascular thrombosis”. For the same molecule, the “ubiquitination of RIPK1 or IκBα degradation” value [5] was “no obvious effects”.
